Assays:
Test in all cases: relative viability (nuclei count vs DMSO), 5 days (fraction); higher = more cells survive
[1] = compound: O=c1ncccn1[C@@H]1O[C@H](CO)[C@@H](O)[C@H]1O [Zebularine] + Cc1nc(NC(=O)N2CCC[C@H]2C(N)=O)sc1-c1ccnc(C(C)(C)C(F)(F)F)c1 [Alpelisib] (partner 2 µM)
Outline: (§1)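 One day after seeding in 1536-well plates, lung cancer cell lines were dosed by pin tool. Dosing was either single-drug or a fixed anchor-drug dose plus five library-drug doses (not always all listed) in √10 steps. After 5 days, nuclei were stained in one fix-and-stain step and counted on 4× images, and relative viability is the nuclei count of treated wells over that of vehicle wells, given as the median of duplicate plates.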

[2] = compound: O=c1ncccn1[C@@H]1O[C@H](CO)[C@@H](O)[C@H]1O [Zebularine] + CS(=O)(=O)CCNCc1ccc(-c2ccc3ncnc(Nc4ccc(OCc5cccc(F)c5)c(Cl)c4)c3c2)o1 [Lapatinib] (partner 2 µM)
Outline: as §1

[3] = compound: CC(C)CCN1c2nc(Nc3cc(F)c(O)c(F)c3)ncc2N(C)C(=O)C1C [BI-D1870] + Nc1ncn([C@H]2C[C@H](O)[C@@H](CO)O2)c(=O)n1 [Decitabine] (partner 2 µM)
Outline: as §1

[4] = compound: CC(C)CCN1c2nc(Nc3cc(F)c(O)c(F)c3)ncc2N(C)C(=O)C1C [BI-D1870] + O=C(CCCCCCC(=O)Nc1ccccc1)NO [Vorinostat] (partner 1 µM)
Outline: as §1

Cell Line | relative viability ([1]; first compound 1 µM) | relative viability ([1]; first compound 3.162 µM) | relative viability ([1]; first compound 10 µM) | relative viability ([1]; first compound 31.62 µM) | relative viability ([1]; first compound 100 µM) | relative viability ([2]; first compound 1 µM) | relative viability ([2]; first compound 3.162 µM) | relative viability ([2]; first compound 10 µM) | relative viability ([2]; first compound 31.62 µM) | relative viability ([2]; first compound 100 µM) | relative viability ([3]; first compound 0.04 µM) | relative viability ([3]; first compound 0.1265 µM) | relative viability ([3]; first compound 0.4 µM) | relative viability ([3]; first compound 1.265 µM) | relative viability ([3]; first compound 4 µM) | relative viability ([4]; first compound 0.04 µM) | relative viability ([4]; first compound 0.1265 µM) | relative viability ([4]; first compound 0.4 µM) | relative viability ([4]; first compound 1.265 µM) | relative viability ([4]; first compound 4 µM)
201T | 1.07 | 1.06 | 0.859 | 0.992 | 0.877 | 1.05 | 1.09 | 0.902 | 1.06 | 1.11 | 0.886 | 0.849 | 0.847 | 0.848 | 0.879 | 1.01 | 0.91 | 0.922 | 0.914 | 0.932
A549 | 0.923 | 0.658 |  | 0.625 | 0.317 | 1.16 | 0.941 | 0.438 | 0.698 | 0.2 | 0.213 | 0.282 | 0.27 | 0.288 | 0.236 |  |  |  |  | 
A-427 | 1.08 | 0.993 | 0.785 | 0.412 | 0.237 | 1.13 | 1.01 | 0.691 | 0.58 | 0.256 | 0.573 | 0.499 | 0.561 | 0.685 | 0.638 | 0.917 | 0.843 | 0.817 | 0.807 | 0.501
ABC-1 | 1.43 | 1.01 | 0.84 | 0.891 | 0.536 | 1.05 | 1.08 | 0.655 | 0.642 | 0.605 | 0.885 | 1.05 | 1.15 | 0.942 | 1.03 | 1.2 | 1.01 | 1.07 | 1.2 | 0.535
BEN | 0.991 | 0.897 | 0.454 | 0.372 | 0.377 | 0.661 | 0.491 | 0.347 | 0.311 | 0.22 | 0.748 | 0.617 | 0.733 | 0.738 | 0.844 | 0.538 | 0.504 | 0.595 | 0.628 | 0.534
CAL-12T | 1.49 | 1.07 |  | 1.28 | 1.1 | 0.757 | 0.658 |  | 0.701 | 0.633 |  |  |  |  |  | 1.07 | 0.675 | 0.716 | 0.666 | 0.352
COR-L23 | 0.872 | 0.926 | 0.431 | 0.361 | 0.265 | 1.1 | 0.924 | 0.5 | 0.383 | 0.232 | 0.445 | 0.402 | 0.508 | 0.526 | 0.405 | 0.615 | 0.402 | 0.494 | 0.5 | 0.269
COR-L 105 | 1.24 | 0.952 | 0.807 | 0.96 | 1.1 | 0.388 | 0.367 | 0.362 | 0.361 | 0.364 | 0.668 | 0.516 | 0.668 | 0.733 | 0.656 | 0.804 | 0.837 | 0.77 | 0.875 | 0.765
Calu-6 | 1 | 0.929 | 0.869 | 0.786 | 0.302 | 1.17 | 0.99 | 0.604 | 0.813 | 0.347 |  |  |  |  |  |  |  |  |  | 
ChaGo-K-1 |  |  |  |  |  |  |  |  |  |  | 0.527 | 0.468 | 0.506 | 0.519 | 0.511 | 0.8 | 0.703 | 0.711 | 0.72 | 0.641
EBC-1 | 0.899 | 0.832 | 0.711 | 1.02 | 0.857 | 0.244 | 0.197 |  | 0.205 | 0.212 |  |  |  |  |  |  |  |  |  | 
EKVX | 0.958 | 0.867 |  | 0.963 | 0.802 | 0.218 | 0.182 |  | 0.211 | 0.184 | 0.328 | 0.309 | 0.374 | 0.436 | 0.39 | 0.779 | 0.707 | 0.64 | 0.814 | 0.703
EMC-BAC-2 | 0.799 | 0.583 | 0.456 | 0.878 | 0.773 | 0.984 | 0.964 | 0.647 | 0.968 | 0.981 | 1.02 | 0.985 | 1.01 | 1.27 | 1.02 | 0.495 | 0.519 | 0.397 | 0.461 | 0.413
EPLC-272H | 0.975 |  |  | 0.828 | 0.776 | 0.935 |  |  | 0.992 | 0.598 | 0.372 | 0.346 | 0.417 | 0.359 | 0.372 | 0.523 | 0.663 | 0.484 | 0.297 | 0.148
H3255 | 0.664 | 0.734 | 0.422 | 0.716 | 0.673 | 0.249 | 0.239 | 0.221 | 0.235 | 0.228 | 0.633 | 0.643 | 0.571 | 0.749 | 0.648 | 0.88 | 0.816 | 0.761 | 0.889 | 0.802
HARA | 1.01 | 0.804 |  | 0.818 | 0.572 | 0.731 | 0.906 |  | 0.896 | 1.02 | 0.513 | 0.527 | 0.568 | 0.683 | 0.684 | 0.542 | 0.405 | 0.641 | 0.614 | 0.495

Source: the supplement of paper PMC10307832
